This note sets out measurements from the Kinase Knowledgebase extract (Sharma et al. 2016).

In the test the target is MAPK14 (human) (UniProt Q16539). In words: Inhibition of LPS Stimulated TNF Production by U937 Cells. The conditions noted are these: for inhibition: concentration not given here.
Chain of MAPK14 (human) (Q16539 whole entry, looked up): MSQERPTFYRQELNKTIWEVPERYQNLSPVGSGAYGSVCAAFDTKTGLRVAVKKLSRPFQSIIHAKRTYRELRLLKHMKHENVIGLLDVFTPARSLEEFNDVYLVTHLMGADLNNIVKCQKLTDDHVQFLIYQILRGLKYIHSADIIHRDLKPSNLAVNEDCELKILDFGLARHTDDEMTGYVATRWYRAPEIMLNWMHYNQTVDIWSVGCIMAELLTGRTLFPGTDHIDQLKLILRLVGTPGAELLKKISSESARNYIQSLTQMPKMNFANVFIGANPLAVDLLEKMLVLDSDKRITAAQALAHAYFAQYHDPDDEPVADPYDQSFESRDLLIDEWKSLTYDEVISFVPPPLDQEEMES

With `CC(=O)O[C@@H](C)C(=O)N[C@H](C)c1[nH]nc(-c2ccc(F)cc2)c1-c1ccncc1`, the inhibition was 27%. The compound `O=C(NCCCc1[nH]nc(-c2ccc(F)cc2)c1-c1ccncc1)NC1CN2CCC1CC2` (stereo not given) came in with an IC50 greater than 1000 nM.

`O=C(NCc1[nH]nc(-c2ccc(F)cc2)c1-c1ccncc1)c1cccs1` yielded an IC50 greater than 1000 nM.

On to `Cc1cccc(-c2n[nH]cc2-c2ccnc(C)c2)c1`, for which the IC50 was determined as 301 nM. That is a sub-micromolar value. `O=S(=O)(NCCc1[nH]nc(-c2ccc(F)cc2)c1-c1ccncc1)c1cccc2cnccc12` returned an inhibition of 91%.

Consider `CN(C)CCn1cc(-c2ccnc(NCc3ccc(F)cc3)c2)c(-c2ccc(F)cc2)n1`, for which the IC50 was 920 nM.

Regarding `O=S(=O)(NCc1[nH]nc(-c2ccc(F)cc2)c1-c1ccncc1)c1cccc(Br)c1`, the inhibition was 90%. Same read-out and setting: then `O=S(=O)(NCCCc1[nH]nc(-c2ccc(F)cc2)c1-c1ccncc1)c1cccc(C(F)(F)F)c1`, with 11%.

Consider `O=C(NCCCc1[nH]nc(-c2ccc(F)cc2)c1-c1ccncc1)NCc1ccccn1`, for which the inhibition is 10%. The same measure, in the same setting: in the case of `C[C@@H](NS(=O)(=O)c1cccc2cccnc12)c1[nH]nc(-c2ccc(F)cc2)c1-c1ccncc1` it was 71%. The compound `CNC(=O)CC[C@H](NC(=O)c1ccccc1F)c1[nH]nc(-c2ccc(F)cc2)c1-c1ccncc1` came in with an IC50 greater than 1000 nM. As to `C[C@@H](NC(=O)N(C)c1ccccc1)c1[nH]nc(-c2ccc(F)cc2)c1-c1ccncc1`, the inhibition worked out at 30%. `COc1cccc(CC(=O)N2CCC(c3[nH]nc(-c4ccc(F)cc4)c3-c3ccncc3)CC2)c1`: the IC50 was 770 nM.

`COC(=O)NCc1[nH]nc(-c2ccc(F)cc2)c1-c1ccncc1` showed an inhibition of 52%. For the compound `Fc1ccc(-c2nn(CCN3CCOCC3)cc2-c2ccnc(F)c2)cc1`, the IC50 is greater than 10000 nM. Still for that read-out and setting: in the case of `O=S(=O)(NCCCc1[nH]nc(-c2ccc(F)cc2)c1-c1ccncc1)c1ccccc1Br` it was 480 nM; in that of `O=C(NCc1[nH]nc(-c2ccc(F)cc2)c1-c1ccncc1)c1ccccc1I`, 2970 nM. `C[C@@H](NC(=O)N1CCCC1)c1[nH]nc(-c2ccc(F)cc2)c1-c1ccncc1` yielded an inhibition of 48%.

The compound `C[C@H](NC(=O)Cc1cccs1)c1[nH]nc(-c2ccc(F)cc2)c1-c1ccncc1` registered an inhibition of 28%. The compound `CC(C)(C)C(=O)N[C@H](Cc1ccccc1)c1[nH]nc(-c2ccc(F)cc2)c1-c1ccncc1` had an IC50 greater than 1000 nM. Compound `C[C@@H](NC(=O)c1c(F)cccc1C(F)(F)F)c1[nH]nc(-c2ccc(F)cc2)c1-c1ccncc1` yielded an inhibition of 86%. On the same count and under the same terms, then `CNC(=O)NCc1[nH]nc(-c2ccc(F)cc2)c1-c1ccncc1`, with 30%; and `C[C@@H](NS(=O)(=O)c1ccccc1S(C)(=O)=O)c1[nH]nc(-c2ccc(F)cc2)c1-c1ccncc1`, with 80%; and `O=C(NCc1[nH]nc(-c2ccc(F)cc2)c1-c1ccncc1)c1cnc2ccccc2n1`, with 14%. The compound `CCc1ccccc1NC(=O)NCc1[nH]nc(-c2ccc(F)cc2)c1-c1ccncc1` had an inhibition of 21%. Consider `C[C@H](NS(=O)(=O)c1ccccc1Br)c1[nH]nc(-c2ccc(F)cc2)c1-c1ccncc1`, for which the inhibition worked out at 81%. The same measure, in the same setting: then `CC(=O)NCCNC(=O)NCCCc1[nH]nc(-c2ccc(F)cc2)c1-c1ccncc1`, with 9%; and `C[C@H](NC(=O)Nc1cccc(F)c1)c1[nH]nc(-c2ccc(F)cc2)c1-c1ccncc1`, with 22%; and `CC(C)NC(=O)NCCc1[nH]nc(-c2ccc(F)cc2)c1-c1ccncc1`, with 54%.

As to `COc1ccc(S(=O)(=O)NCc2[nH]nc(-c3ccc(F)cc3)c2-c2ccncc2)cc1`, the IC50 came out at 1780 nM.

In turn, `O=C(c1ccccn1)N1CCC(c2[nH]nc(-c3ccc(F)cc3)c2-c2ccncc2)CC1` had a half-maximal inhibitory concentration (IC50) of 250 nM. As for `C[C@@H](NC(=O)NCCc1[nH]nc(-c2ccc(F)cc2)c1-c1ccncc1)c1ccccc1`, the IC50 was determined as 5000 nM and the inhibition worked out at 25%. Take `C[C@H](NC(=O)c1c(F)cccc1F)c1[nH]nc(-c2ccc(F)cc2)c1-c1ccncc1`: the inhibition turned out to be 56%. The same measure, in the same setting: in the case of `C[C@H](NS(=O)(=O)c1ccc(S(=O)(=O)c2ccccc2)s1)c1[nH]nc(-c2ccc(F)cc2)c1-c1ccncc1` it was 72%; in that of `C[C@H](NS(=O)(=O)c1cccc2nonc12)c1[nH]nc(-c2ccc(F)cc2)c1-c1ccncc1`, 78%. In the case of `Cc1noc(C)c1S(=O)(=O)NCc1[nH]nc(-c2ccc(F)cc2)c1-c1ccncc1`, the inhibition stood at 1%. On to `C[C@H](NC(=O)N(C)C)c1[nH]nc(-c2ccc(F)cc2)c1-c1ccncc1`, for which the inhibition came out at 54%.

`Cc1c(Cl)cccc1S(=O)(=O)N[C@@H](C)c1[nH]nc(-c2ccc(F)cc2)c1-c1ccncc1` showed an inhibition of 54%. `c1cc(-c2c[nH]nc2-c2ccc3c(c2)OCO3)ccn1` came in with an IC50 of 417 nM. The compound `O=C(NCc1[nH]nc(-c2ccc(F)cc2)c1-c1ccncc1)Nc1ccccc1` had an inhibition of 31%. As for `C[C@@H](NC(=O)C(C)(C)C)c1[nH]nc(-c2ccc(F)cc2)c1-c1ccncc1`, the inhibition stood at 32%. `C#CCNc1n[nH]c(-c2ccc(F)cc2)c1-c1ccncc1` had an IC50 of 300 nM. Consider `O=C(NCc1[nH]nc(-c2ccc(F)cc2)c1-c1ccncc1)c1ccc(F)c(C(F)(F)F)c1`, for which the inhibition was determined as 22%.

`O=C(NCc1[nH]nc(-c2ccc(F)cc2)c1-c1ccncc1)c1ccc(F)cc1` yielded an IC50 of 2760 nM. This lies in the single-digit micromolar range. `CCN(CC)CCn1cc(-c2ccnc(NCc3ccc(F)cc3)c2)c(-c2ccc(F)cc2)n1` returned an IC50 of 700 nM. This IC50 lies about 3.9-fold lower than the previous one. For `Cc1noc(C)c1C(=O)N[C@H](C)c1[nH]nc(-c2ccc(F)cc2)c1-c1ccncc1`, the inhibition amounted to 73%.

As for `C[C@@H](NC(=O)c1cccnc1)c1[nH]nc(-c2ccc(F)cc2)c1-c1ccncc1`, the inhibition is 36%. Same read-out and setting: then `COc1cccc(CC(=O)N[C@H](C)c2[nH]nc(-c3ccc(F)cc3)c2-c2ccncc2)c1`, with 18%. On the same count and under the same terms, in the case of `C[C@H](NS(=O)(=O)c1cccc(C(F)(F)F)c1)c1[nH]nc(-c2ccc(F)cc2)c1-c1ccncc1` it was 83%. In turn, `CC(C)(C)c1ccc(S(=O)(=O)NCc2[nH]nc(-c3ccc(F)cc3)c2-c2ccncc2)cc1` showed an IC50 greater than 1000 nM. `O=C(NCc1[nH]nc(-c2ccc(F)cc2)c1-c1ccncc1)Nc1cc(Cl)cc(Cl)c1`: the inhibition worked out at 20%. The same measure, in the same setting: in the case of `C[C@H](NC(=O)N1CCOCC1)c1[nH]nc(-c2ccc(F)cc2)c1-c1ccncc1` it was 37%. For `COc1ccc(S(=O)(=O)N[C@@H](Cc2ccccc2)c2[nH]nc(-c3ccc(F)cc3)c2-c2ccncc2)cc1OC`, the IC50 was less than 1000 nM.

Compound `O=C(NCc1ccc(S(=O)(=O)NCc2[nH]nc(-c3ccc(F)cc3)c2-c2ccncc2)s1)c1ccccc1` displayed an inhibition of 68%. The compound `C[C@H](NC(=O)c1ccc(F)c(F)c1F)c1[nH]nc(-c2ccc(F)cc2)c1-c1ccncc1` came in with an inhibition of 18%.

Turning to `O=C(N[C@H](Cc1ccccc1)c1[nH]nc(-c2ccc(F)cc2)c1-c1ccncc1)c1cccc(Br)c1`, the IC50 was greater than 1000 nM. On to `C[C@@H](NC(=O)C1CC1)c1[nH]nc(-c2ccc(F)cc2)c1-c1ccncc1`, for which the inhibition is 46%. Take `C[C@@H](NS(=O)(=O)c1cccc2ccccc12)c1[nH]nc(-c2ccc(F)cc2)c1-c1ccncc1`: the inhibition worked out at 58%. As to `O=C(c1ccc(Br)cc1)N1CCC(c2[nH]nc(-c3ccc(F)cc3)c2-c2ccncc2)CC1`, the IC50 stood at 1380 nM.

As a reminder, the inhibition is the change of the read-out against control, counted positive when it falls. The low end stands for a weak effect, the high end for a strong effect. In general, IC50 refers to the concentration that inhibits the measured activity by half. Read a high IC50 as lower potency.
